The results in this text go back to patent US9062041B2 (Bayer Intellectual Property GmbH, priority 2011, dated 2015).

What all share (type): cell-based
For assay [1], the target named is EP2 subtype of the human PGE2 receptor (Homo sapiens, UniProt P43116). The assay can be described thus: cAMP antagonism test on the human EP2 receptor (HTRF cAMP detection). The conditions noted are these: hEP2 receptor, read-out: Antagonism hEP2 IC50. The essentials:
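Cells expressing human EP2 preincubated 20 min at RT with compound (0.8 nM–16.5 μM), then stimulated 60 min with PGE2 (3× solution 1.5 nM) in PBS-IBMX. After 20 min lysis, cAMP measured by competitive HTRF with cAMP-d2 and Eu cryptate anti-cAMP antibody (665/620 nm ratio).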

For assay [2], the target named is EP4 subtype of the human PGE2 receptor (Homo sapiens, UniProt P35408). Nature of the assay: cAMP antagonism test on the human EP4 receptor (HTRF cAMP detection). The conditions noted are these: selectivity towards hEP4, IC50 measured by cAMP antagonism test. The essentials:
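Cells expressing human EP4 preincubated 20 min at RT with compound (0.8 nM–16.5 μM), then stimulated with PGE2 (0.3 nM in 3× solution, with IBMX) 60 min at RT. After lysis, cAMP measured by HTRF competition (665/620 nm ratio); antagonism seen as rise in FRET signal.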

For assay [3], the target named is T1, human PGD receptor (Homo sapiens, UniProt Q13258).
T1 sequence (Q13258 1-359): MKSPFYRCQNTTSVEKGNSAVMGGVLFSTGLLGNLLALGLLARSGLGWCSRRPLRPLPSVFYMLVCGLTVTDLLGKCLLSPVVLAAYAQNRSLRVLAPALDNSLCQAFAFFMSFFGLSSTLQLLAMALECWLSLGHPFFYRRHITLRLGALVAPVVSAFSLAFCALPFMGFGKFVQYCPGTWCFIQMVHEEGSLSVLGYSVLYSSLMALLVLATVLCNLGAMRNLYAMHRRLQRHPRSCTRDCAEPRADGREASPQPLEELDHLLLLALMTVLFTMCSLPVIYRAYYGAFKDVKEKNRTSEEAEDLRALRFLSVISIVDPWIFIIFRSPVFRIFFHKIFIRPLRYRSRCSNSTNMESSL
Nature of the assay: cAMP antagonism test on the human prostaglandin D receptor (HTRF cAMP detection). The conditions noted are these: selectivity towards hDP, IC50 measured by cAMP antagonism test. The essentials: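 Cells pre-mixed with cAMP-d2 were preincubated with compound (0.8 nM–16.5 μM) for 20 min at RT, then stimulated with 3× PGD2 solution (6 nM, in PBS-IBMX) for 30 min at RT. After lysis (20 min), HTRF read at 665/620 nm; antagonism seen as rise in FRET ratio.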
Background: Time-resolved FRET reads energy transfer from a long-lived donor to a nearby acceptor.

As a reminder, the IC50 is the midpoint of a concentration-inhibition curve.

EP4 subtype of the human PGE2 receptor, sequence (P35408 whole entry): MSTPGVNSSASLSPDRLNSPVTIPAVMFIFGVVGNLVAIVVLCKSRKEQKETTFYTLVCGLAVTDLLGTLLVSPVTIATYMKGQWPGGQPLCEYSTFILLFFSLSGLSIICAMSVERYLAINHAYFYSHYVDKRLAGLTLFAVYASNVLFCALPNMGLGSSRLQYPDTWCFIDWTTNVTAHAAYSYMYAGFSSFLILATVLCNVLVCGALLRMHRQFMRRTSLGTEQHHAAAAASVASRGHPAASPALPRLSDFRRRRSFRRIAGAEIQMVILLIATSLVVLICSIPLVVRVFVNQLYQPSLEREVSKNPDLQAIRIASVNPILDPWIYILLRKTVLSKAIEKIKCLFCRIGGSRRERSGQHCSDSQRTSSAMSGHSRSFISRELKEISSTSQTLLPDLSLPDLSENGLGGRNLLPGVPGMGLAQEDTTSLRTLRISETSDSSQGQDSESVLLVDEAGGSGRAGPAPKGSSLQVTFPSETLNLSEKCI
EP2 subtype of the human PGE2 receptor, sequence (P43116 whole entry): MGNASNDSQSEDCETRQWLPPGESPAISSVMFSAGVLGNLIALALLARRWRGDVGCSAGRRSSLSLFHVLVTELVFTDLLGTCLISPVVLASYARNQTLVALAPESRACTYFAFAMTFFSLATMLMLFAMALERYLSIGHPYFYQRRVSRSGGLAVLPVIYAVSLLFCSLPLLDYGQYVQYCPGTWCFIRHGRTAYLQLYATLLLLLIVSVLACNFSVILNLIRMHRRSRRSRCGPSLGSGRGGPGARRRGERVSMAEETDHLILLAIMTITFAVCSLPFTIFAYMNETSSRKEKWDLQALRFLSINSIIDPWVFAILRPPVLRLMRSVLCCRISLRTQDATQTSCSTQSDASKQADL

On to `Cc1c(C(=O)NCC(F)(F)F)ccc2nn(CC3CN(C(=O)c4ccc(Oc5ccc(F)cc5)cc4)C3)cc12` [Example 160, 2-({1-[4-(4-fluorophenoxy)benzoyl]azetidin-3-yl}methyl)-4-methyl-N-(2,2,2-trifluoroethyl)-2H-indazol-5-carboxamide], for which, in assay [1], the IC50 was found to be 82.9 nM. Besides, the “Selectivity hEP2/hEP4” value in assay [2] was “xxx (xxx > 100)”. In addition, the “Selectivity hEP2/hDP” value in assay [3] is on record as “xxx (xxx > 100)”.
For the compound `COCCNC(=O)c1ccc2nn(CC3CN(C(=O)c4ccc5ccc(OC)cc5c4)C3)cc2c1C` [Example 175, N-(2-methoxyethyl)-2-{[1-(7-methoxy-2-naphthoyl)azetidin-3-yl]methyl}-4-methyl-2H-indazol-5-carboxamide], the IC50 in assay [1] was 8.05 nM. In addition, the “Selectivity hEP2/hEP4” value in assay [2] is given as “xxx (xxx > 100)”. In assay [3], the “Selectivity hEP2/hDP” value is “xxx (xxx > 100)”.
Consider `COCCNC(=O)c1ccc2nn(CC3CCN(C(=O)c4ccccc4OC)CC3)cc2c1C` [Example 24, 2-{[1-(2-methoxy-benzoyl)piperidin-4-yl]methyl}-N-(2-methoxyethyl)-4-methyl-2H-indazol-5-carboxamide], for which the concentration for half-maximal inhibition (IC50) in assay [1] worked out at 60.1 nM. The “Selectivity hEP2/hEP4” value in assay [2] is listed as “xxx (xxx > 100)”. For the same compound, the “Selectivity hEP2/hDP” value in assay [3] is “xxx (xxx > 100)”.
Take `Cc1c(C(=O)NCCOCC(F)(F)F)ccc2nn(CC3CN(C(=O)c4ccc(Oc5ccc(C(F)(F)F)cc5)cc4)C3)cc12` [Example 163, 4-methyl-N-[2-(2,2,2-trifluoroethoxy)ethyl]-2-[(1-{4-[4-(trifluoromethyl)phenoxy]benzoyl}azetidin-3-yl)methyl]-2H-indazol-5-carboxamide]: in assay [1], the IC50 is 6.8 nM. Besides, in assay [2], the “Selectivity hEP2/hEP4” value is reported as “xxx (xxx > 100)”. In addition, the “Selectivity hEP2/hDP” value in assay [3] was “xxx (xxx > 100)”.
Regarding `Cc1c(C(=O)NCC(F)(F)F)ccc2nn(CC3CCN(C(=O)c4ccc(Oc5ccc(C#N)cn5)cc4)CC3)cc12` [Example 310, 2-[(1-{4-[(5-cyanopyridin-2-yl)oxy]benzoyl}piperidin-4-yl)methyl]-4-methyl-N-(2,2,2-trifluoroethyl)-2H-indazol-5-carboxamide], in assay [1], the concentration for half-maximal inhibition (IC50) came out at 806 nM. Moreover, in assay [2], the “Selectivity hEP2/hEP4” value is on record as “xx (xx: 10-100)”. The “Selectivity hEP2/hDP” value in assay [3] is “xx (xx: 10-100)”.
`Cc1c(C(=O)NCCOC(C)(C)C)ccc2nn(CC3CCN(C(=O)c4ccc(-c5ccc(F)cc5)cc4)CC3)cc12` [Example 113, N-(2-tert-butoxyethyl)-2-({1-[(4′-fluoro-biphenyl-4-yl)-carbonyl]piperidin-4-yl}methyl)-4-methyl-2H-indazol-5-carboxamide]: the IC50 in assay [1] came to 13.9 nM. Also, in assay [2], the “Selectivity hEP2/hEP4” value is “xxx (xxx > 100)”. The “Selectivity hEP2/hDP” value in assay [3] is “xxx (xxx > 100)”.
As for `CCc1c(C(=O)NCCOC)ccc2nn(CC3CCN(C(=O)c4ccc(Cl)cc4)CC3)cc12` [Example 212, 2-{[1-(4-chlorobenzoyl)piperidin-4-yl]methyl}-4-ethyl-N-(2-methoxyethyl)-2H-indazol-5-carboxamide], the IC50 in assay [1] worked out at 106 nM. Besides, in assay [2], the “Selectivity hEP2/hEP4” value was “xxx (xxx > 100)”. In assay [3], the “Selectivity hEP2/hDP” value is recorded as “xxx (xxx > 100)”.
`Cc1c(C(=O)NCCO)ccc2nn(CC3CCN(C(=O)c4ccc(-c5ccc(F)cc5)cc4)CC3)cc12` [Example 410, 2-({1-[(4′-fluorobiphenyl-4-yl)carbonyl]piperidin-4-yl}methyl)-N-(2-hydroxyethyl)-4-methyl-2H-indazol-5-carboxamide]: the IC50 in assay [1] amounted to 90.4 nM. The “Selectivity hEP2/hEP4” value in assay [2] was “xxx (xxx > 100)”. Moreover, the “Selectivity hEP2/hDP” value in assay [3] was “xxx (xxx > 100)”.
As to `Cc1c(C(=O)NCC(F)(F)F)ccc2nn(CC3CN(C(=O)c4cc5cc(F)ccc5n4C)C3)cc12` [Example 167, 2-({1-[(5-fluoro-1-methyl-1H-indol-2-yl)carbonyl]azetidin-3-yl}methyl)-4-methyl-N-(2,2,2-trifluoroethyl)-2H-indazol-5-carboxamide], the 50% inhibitory concentration (IC50) in assay [1] came out at 13.5 nM. Moreover, the “Selectivity hEP2/hEP4” value in assay [2] is given as “xxx (xxx > 100)”. For the same compound, in assay [3], the “Selectivity hEP2/hDP” value was “xxx (xxx > 100)”.
`Cc1c(C(=O)NCC(F)(F)F)ccc2nn(CC3CCN(C(=O)c4nc5ccccc5n4C)CC3)cc12` [Example 297, 4-methyl-2-({1-[(1-methyl-1H-benzimidazol-2-yl)carbonyl]piperidin-4-yl}-methyl)-N-(2,2,2-trifluoroethyl)-2H-indazol-5-carboxamide]: the IC50 in assay [1] was found to be 460 nM. Further, the “Selectivity hEP2/hEP4” value in assay [2] was “xx (xx: 10-100)”. Besides, in assay [3], the “Selectivity hEP2/hDP” value is given as “xx (xx: 10-100)”.
Turning to `Cc1ccc(C(=O)N2CCC(Cn3cc4c(C)c(C(=O)NCCOCC5CC5)ccc4n3)CC2)cc1` [Example 85, N-[2-(cyclopropyl-methoxy)ethyl]-4-methyl-2-{[1-(4-methylbenzoyl)-piperidin-4-yl]-methyl}-2H-indazol-5-carboxamide], in assay [1], the IC50 was 35.5 nM. In addition, the “Selectivity hEP2/hEP4” value in assay [2] is “xxx (xxx > 100)”. In addition, in assay [3], the “Selectivity hEP2/hDP” value is “xxx (xxx > 100)”.
In the case of `COCCNC(=O)c1ccc2nn(CC3CCN(C(=O)c4ccc(OC(F)(F)F)cc4)CC3)cc2c1OC` [Example 266, 4-methoxy-N-(2-methoxyethyl)-2-({1-[4-(trifluoromethoxy)benzoyl]piperidin-4-yl}methyl)-2H-indazol-5-carboxamide], the IC50 in assay [1] amounted to 18.9 nM. Further, the “Selectivity hEP2/hEP4” value in assay [2] is “xxx (xxx > 100)”. For the same compound, the “Selectivity hEP2/hDP” value in assay [3] is recorded as “xxx (xxx > 100)”.
In the case of `Cc1c(C(=O)NCCN2CCOCC2)ccc2nn(CC3CCN(C(=O)c4ccc(S(F)(F)(F)(F)F)cc4)CC3)cc12` [Example 60, 4-methyl-N-(2-morpholinoethyl)-2-({1-[4-(pentafluoro-λ^6-sulphanyl)benzoyl]-piperidin-4-yl}methyl)-2H-indazol-5-carboxamide], in assay [1], the IC50 was determined as 175 nM. In assay [2], the “Selectivity hEP2/hEP4” value is on record as “xx (xx: 10-100)”. Moreover, the “Selectivity hEP2/hDP” value in assay [3] is recorded as “xx (xx: 10-100)”.
Take `Cc1c(C(=O)NCC2CCCCO2)ccc2nn(CC3CCN(C(=O)c4ccc(Cl)cc4)CC3)cc12` (single isomer, unassigned) [Example 240, (R or S)-2-{[1-(4-chlorobenzoyl)piperidin-4-yl]methyl}-4-methyl-N-(3,4,5,6-tetrahydro-2H-pyran-2-ylmethyl)-2H-indazol-5-carboxamide]: the IC50 in assay [1] is 25.1 nM. In assay [2], the “Selectivity hEP2/hEP4” value is reported as “xxx (xxx > 100)”. In addition, the “Selectivity hEP2/hDP” value in assay [3] is reported as “xxx (xxx > 100)”.
Take `COCCNC(=O)c1ccc2nn(CC3CCN(C(=O)c4ccc(-c5cncc(F)c5)cc4)CC3)cc2c1C` [Example 386, 2-({1-[4-(5-fluoropyridin-3-yl)benzoyl]piperidin-4-yl}methyl)-N-(2-methoxy-ethyl)-4-methyl-2H-indazol-5-carboxamide]: in assay [1], the IC50 came to 25.7 nM. Moreover, the “Selectivity hEP2/hEP4” value in assay [2] is listed as “xxx (xxx > 100)”. In addition, in assay [3], the “Selectivity hEP2/hDP” value was “xxx (xxx > 100)”.
With `Cc1c(C(=O)NCC(F)(F)F)ccc2nn(CC3CCN(C(=O)c4ncc(-c5ccccc5)o4)CC3)cc12` [Example 309, 4-methyl-2-({1-[(5-phenyloxazol-2-yl)carbonyl]piperidin-4-yl}methyl)-N-(2,2,2-trifluoroethyl)-2H-indazol-5-carboxamide], the IC50 in assay [1] was found to be 66 nM. In assay [2], the “Selectivity hEP2/hEP4” value is “xxx (xxx > 100)”. Besides, the “Selectivity hEP2/hDP” value in assay [3] is on record as “xxx (xxx > 100)”.
